Data taken from US10392412B2, “Platinum anticancer agents” (THE REGENTS OF THE UNIVERSITY OF CALIFORNIA, priority 2015, dated 2019).
Entries after “also recorded” stand apart in the source; their conditions may differ. Like-named read-outs stand apart in the source and are kept apart here.

Assays:
RMS13 cells = assay: Cytotoxicity CellTiter-Glo; format: cell-based, human; settings: RMS13, Rhabdomyosarcoma
SNB75 cells = assay: Cytotoxicity CellTiter-Glo; format: cell-based, human
[1] = Maximum tolerated dose study: clinical chemistry evaluation (blood cell parameters, Table 6)
Experimental: The mice used in MTD were given standard chow devoid of added folic acid (low folate diet) (See, Leamon C P et al., J. Pharmacol. Exp. Ther. 327: 918-925). […] Therefore we also designed a MTD study in mice treated with low folate diet. Food consumption on the day before injection (Day −1) was recorded and then it was monitored every other day. […] Blood for clinical chemistry was collected if possible. Liver, kidney and bone marrow were collected. One side of each tissue (except bone marrow) will be fixed in 4-10% formalin for future histology analysis, and the rest of tissue will be cut into pieces, snap frozen, and stored at −80° C. until analysis. Blood samples for clinical chemistry were centrifuged at 8000 rpm for 10 min at 4° C. within 1 hour of collection. Plasma was collected into 1.5 mL eppendorf tubes and stored at −80° C. until analysis. The measured parameters were alanine transaminase (ALT), aspartate transaminase (AST), alkaline phosphatase (ALP), total bilirubin, glucose, blood urea nitrogen (BUN), creatinine, and electrolytes. All experiments were housed in a virus-free, temperature controlled facility on a 12-h light-dark cycle.

U87MG cells = assay: Cytotoxicity CellTiter-Glo; format: cell-based, human
U-2 OS cells = assay: Cytotoxicity CellTiter-Glo; format: cell-based, human
A673 cells = assay: Cytotoxicity CellTiter-Glo; format: cell-based, human
A2780-CP cells = assay: Cytotoxicity CellTiter-Glo; format: cell-based, human; settings: read-out: IC50 (50% growth inhibition), Ovary, 72 hours
SLC19A1 = biological target: T1, SLC19A1 (Homo sapiens, UniProt P41440); assay: Inhibition of SLC19A1-mediated uptake of 3H-methotrexate; format: cell-based; settings: read-out: IC50, inhibition of SLC19A1-mediated uptake of 3H-methotrexate
T1 sequence (P41440 1-591): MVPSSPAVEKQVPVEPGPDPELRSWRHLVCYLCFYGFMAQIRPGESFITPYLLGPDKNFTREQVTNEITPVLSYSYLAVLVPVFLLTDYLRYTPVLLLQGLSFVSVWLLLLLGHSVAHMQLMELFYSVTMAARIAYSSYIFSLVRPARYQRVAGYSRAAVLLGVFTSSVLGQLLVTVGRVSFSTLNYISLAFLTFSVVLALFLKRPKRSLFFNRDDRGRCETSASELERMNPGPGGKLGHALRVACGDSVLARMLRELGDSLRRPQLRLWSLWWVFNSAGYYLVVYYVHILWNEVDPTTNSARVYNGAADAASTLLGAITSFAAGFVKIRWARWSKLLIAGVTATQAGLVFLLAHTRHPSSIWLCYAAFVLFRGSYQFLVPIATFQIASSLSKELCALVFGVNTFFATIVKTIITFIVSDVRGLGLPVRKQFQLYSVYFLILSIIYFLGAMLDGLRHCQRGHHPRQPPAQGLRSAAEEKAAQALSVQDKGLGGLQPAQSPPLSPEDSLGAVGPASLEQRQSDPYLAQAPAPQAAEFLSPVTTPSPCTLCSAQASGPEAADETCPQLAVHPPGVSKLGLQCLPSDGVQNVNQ
Excerpt: FIG. 10. […] SM69 inhibits DHFR to a lesser degree (at SM69 concentrations of only 10% to 20% of the enzyme activity was inhibited).

MG-63 cells = assay: Cytotoxicity CellTiter-Glo; format: cell-based, human; settings: MG-63, Osteosarcoma
SHEP cells = assay: Cytotoxicity CellTiter-Glo; format: cell-based, human
[2] = tested on: RMS13 rhabdomyosarcoma xenografts; assay: RMS13 rhabdomyosarcoma xenograft in nu/nu mice; format: in vivo, mouse; settings: for tumor volume / tumor growth: RMS13 rhabdomyosarcoma xenograft, 5 mg/kg i.v. once a week for 4 weeks
Experimental: The xenograft studies were performed by subcutaneous injection of SK-N-DZ (neuroblastoma, 30×10^6 cells/animal) and RMS13 (rhabdomyosarcoma, 20×10^6 cells/animal) in right flank of the male Charles River Laboratories nu/nu mice (7-8 weeks old, weight ˜20 g). Mice were treated by intravenous tail vein injection once a week for 4 weeks. The tumor sizes and body weights were monitored twice a week. Tumor volumes were calculated according to the following formula: volume=height×[…]×length×0.5236.

[3] = read-out: IC50 (50% growth inhibition), 72 hours

## [Pt(DMSO)methotrexate(Cl)] [SM-69]
RMS13 cells
  GI50: 4.1 ± 2.3 µM
RMS13 cells; [3]
  IC50: 4.1 ± 2.3 µM
SNB75 cells; read-out: IC50 (50% growth inhibition), SNB75, Brain, 72 hours
  IC50: 6.1 ± 4.6 µM
SNB75 cells; read-out: IC50 ± S.D. (50% growth inhibition), SNB75, Brain - High grade, + 1 mM Folic Acid
  IC50: 46.3 ± 20.2 µM
SNB75 cells; read-out: IC50 ± S.D. (50% growth inhibition), SNB75, Brain - High grade, two independent experiments
  IC50: 8.7 ± 6.4 µM
[1]; 2.5 mpk i.v. once a week
  RDWa: 30.35
  granulocytes (GRAN %): 31.88%
  granulocytes (GRAN): 3.55
  hematocrit (HCT): 46.20
  hemoglobin (HGB): 16.20
  lymphocytes (LYM %): 60.70%
  lymphocytes (LYM): 6.65
  mean corpuscular hemoglobin (MCH): 15.65
  mean corpuscular hemoglobin concentration (MCHC): 35.08
  mean corpuscular volume (MCV): 44.68
  mean platelet volume (MPV): 6.68
  monocytes (MONO %): 7.43%
  monocytes (MONO): 0.83
  platelet count (PLT): 193.00
  red blood cell count (RBC): 10.34
  red cell distribution width (RDW %): 21.53%
  white blood cell count (WBC): 11.03
[1]; 5 mpk i.v. once a week
  RDWa: 30.10
  granulocytes (GRAN %): 33.28%
  granulocytes (GRAN): 3.55
  hematocrit (HCT): 47.65
  hemoglobin (HGB): 17.08
  lymphocytes (LYM %): 58.70%
  lymphocytes (LYM): 6.38
  mean corpuscular hemoglobin (MCH): 15.73
  mean corpuscular hemoglobin concentration (MCHC): 35.83
  mean corpuscular volume (MCV): 43.95
  mean platelet volume (MPV): 6.83
  monocytes (MONO %): 8.03%
  monocytes (MONO): 0.88
  platelet count (PLT): 182.25
  red blood cell count (RBC): 10.86
  red cell distribution width (RDW %): 21.93%
  white blood cell count (WBC): 10.80
[1]; 7.5 mpk i.v. once a week
  RDWa: 29.67
  granulocytes (GRAN %): 36.03%
  granulocytes (GRAN): 4.40
  hematocrit (HCT): 45.47
  hemoglobin (HGB): 16.23
  lymphocytes (LYM %): 56.53%
  lymphocytes (LYM): 7.07
  mean corpuscular hemoglobin (MCH): 15.63
  mean corpuscular hemoglobin concentration (MCHC): 35.73
  mean corpuscular volume (MCV): 43.80
  mean platelet volume (MPV): 6.40
  monocytes (MONO %): 7.43%
  monocytes (MONO): 0.93
  platelet count (PLT): 171.33
  red blood cell count (RBC): 10.38
  red cell distribution width (RDW %): 21.87%
  white blood cell count (WBC): 12.40
U87MG cells; read-out: IC50 (50% growth inhibition), Brain, 72 hours
  IC50: 2.2 ± 2 µM
U87MG cells; read-out: IC50 ± S.D. (50% growth inhibition), Brain - Low grade, + 1 mM Folic Acid
  IC50: 26.2 ± 21.5 µM
U87MG cells; read-out: IC50 ± S.D. (50% growth inhibition), Brain - Low grade, two independent experiments
  IC50: 3.7 ± 4.5 µM
U-2 OS cells; Osteosarcoma
  GI50: 18 ± 15 µM
U-2 OS cells; read-out: IC50 (50% growth inhibition), Osteosarcoma, 72 hours
  IC50: 18 ± 15 µM
A673 cells; A673, Ewing's sarcoma
  GI50: 0.3 ± 0.3 µM
A673 cells; read-out: IC50 (50% growth inhibition), A673, Ewing's Sarcoma, 72 hours
  IC50: 0.3 ± 0.3 µM
A2780-CP cells
  IC50: 8.6 ± 2.1 µM
SLC19A1
  IC50: 6.5 µM
MG-63 cells
  GI50: 2.4 ± 1.4 µM
MG-63 cells; [3]
  IC50: 2.4 ± 1.4 µM
SHEP cells; Neuroblastoma
  GI50: 2.7 ± 2.3 µM
SHEP cells; read-out: IC50 (50% growth inhibition), Neuroblastoma, 72 hours
  IC50: 2.7 ± 2.3 µM
[2]; 5 mg/kg
  tumor volume / tumor growth: significantly different compared with other groups; also recorded: significantly lower compared with SM-70
[2]; listed as AT-69, 5 mg/kg
  tumor volume / tumor growth: significantly reduces RMS tumor growth; also recorded: inhibited tumor growth; also recorded: more potent than cisplatin
[2]; RMS13 xenograft model, 5 mpk, listed as AT-69, 5 mg/kg
  survival: significantly increase survival; also recorded: increase survival rate; also recorded: significantly increased rate of survival
